According to article PMC5650530 (ACS chemical biology, 2017):
pIC50: −log10 of the molar value. Read-outs that look alike come from different tables or passages of the source.

Key:
BAIAP2 = molecular target: T1, BAIAP2 (Homo sapiens, UniProt Q9UQB8); test: LiPIP; format: binding; conditions: KDT501 25 and 50 μM; A-DA or AEA-DA probe 10 μM; HEK293T cells
T1 sequence (Q9UQB8 1-552): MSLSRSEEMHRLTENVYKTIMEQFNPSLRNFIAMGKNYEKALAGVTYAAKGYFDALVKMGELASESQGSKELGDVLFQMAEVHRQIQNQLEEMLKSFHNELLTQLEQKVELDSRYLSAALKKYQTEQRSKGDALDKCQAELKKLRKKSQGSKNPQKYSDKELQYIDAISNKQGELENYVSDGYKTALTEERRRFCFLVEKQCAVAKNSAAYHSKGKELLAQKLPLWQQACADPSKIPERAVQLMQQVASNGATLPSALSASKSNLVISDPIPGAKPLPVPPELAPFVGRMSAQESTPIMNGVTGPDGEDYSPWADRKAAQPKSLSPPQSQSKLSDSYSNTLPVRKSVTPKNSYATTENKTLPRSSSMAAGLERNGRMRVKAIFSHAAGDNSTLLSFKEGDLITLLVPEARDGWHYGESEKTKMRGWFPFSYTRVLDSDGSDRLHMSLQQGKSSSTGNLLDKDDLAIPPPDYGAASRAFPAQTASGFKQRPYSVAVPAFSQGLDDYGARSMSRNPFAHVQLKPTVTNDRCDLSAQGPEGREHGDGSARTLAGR

PTGR2 [1] = molecular target: T2, PTGR2 (Homo sapiens, UniProt Q8N8N7); test: 15-keto PGE2 substrate assay with recombinant PTGR2 protein; format: biochemical; conditions: read-out: IC50, inhibition of dhk-PGE2 production, 15-keto PGE2 and NADPH, 95% CI 4.4–16 μM
Target sequence in this assay (Q8N8N7 whole entry): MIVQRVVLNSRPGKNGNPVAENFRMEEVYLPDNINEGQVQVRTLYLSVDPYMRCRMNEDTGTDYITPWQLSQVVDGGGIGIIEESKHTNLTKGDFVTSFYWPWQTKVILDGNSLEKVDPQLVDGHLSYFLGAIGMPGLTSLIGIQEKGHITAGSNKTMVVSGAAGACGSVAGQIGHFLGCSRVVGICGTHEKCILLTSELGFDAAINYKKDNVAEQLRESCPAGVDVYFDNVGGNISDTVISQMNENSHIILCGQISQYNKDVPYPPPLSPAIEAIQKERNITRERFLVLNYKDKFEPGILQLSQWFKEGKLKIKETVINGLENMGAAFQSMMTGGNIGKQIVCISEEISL

[2] = reference not given; cited from earlier work
PTGR2 [3] = molecular target: T2, PTGR2; format: binding; conditions: read-out: IC50, blockade of A-DA probe labeling of recombinant PTGR2; transfected cell lysates; A-DA 5 μM; 95% CI 3.0–5.3 μM
Target sequence in this assay (Q8N8N7 whole entry, species assumed): as the sequence (Q8N8N7 whole entry) above

PTGR2 [4] = molecular target: T2, PTGR2; test: LiPIP; format: binding; conditions: KDT501 25 and 50 μM; A-DA or AEA-DA probe 10 μM; HEK293T cells
Target sequence in this assay (Q8N8N7 whole entry): as above

PPAR-γ = conditions: cited from earlier work
PTGR2 [5] = molecular target: T2, PTGR2; test: 15-keto PGE2 reductase activity of PTGR2-transfected HEK293T cell lysates; format: biochemical; conditions: read-out: IC50, inhibition of 15-keto PGE2 reductase activity; lysates from HEK293T cells transfected with PTGR2; 95% CI 1.4–2.4 μM
Target sequence in this assay (Q8N8N7 whole entry, species assumed): as the sequence (Q8N8N7 whole entry) above

CC(C)CCC(=O)[C@]1(O)C(=O)[C-](C(=O)CC(C)C)C(=O)[C@H]1CCC(C)C.[K+] (stereo partly shown) [KDT501]
blockade of lipid probe enrichment of BAIAP2 (BAIAP2): substantive blockade of enrichment
pIC50 (PTGR2 [1]): 5.08
moderately potent activity in cells (concentration) [2]: 10 to 50 µM
pIC50 (PTGR2 [3]): 5.40
blockade of lipid probe enrichment of PTGR2 (PTGR2 [4]): substantive blockade of enrichment
agonism of PPAR-γ (PPAR-γ): weak agonist
pIC50 (PTGR2 [5]): 5.74
